Common to all, as to type: cell-based
The target in series [1] is T1, CYP1A1 (Mus musculus, UniProt P00184).
T1 sequence (P00184 whole entry): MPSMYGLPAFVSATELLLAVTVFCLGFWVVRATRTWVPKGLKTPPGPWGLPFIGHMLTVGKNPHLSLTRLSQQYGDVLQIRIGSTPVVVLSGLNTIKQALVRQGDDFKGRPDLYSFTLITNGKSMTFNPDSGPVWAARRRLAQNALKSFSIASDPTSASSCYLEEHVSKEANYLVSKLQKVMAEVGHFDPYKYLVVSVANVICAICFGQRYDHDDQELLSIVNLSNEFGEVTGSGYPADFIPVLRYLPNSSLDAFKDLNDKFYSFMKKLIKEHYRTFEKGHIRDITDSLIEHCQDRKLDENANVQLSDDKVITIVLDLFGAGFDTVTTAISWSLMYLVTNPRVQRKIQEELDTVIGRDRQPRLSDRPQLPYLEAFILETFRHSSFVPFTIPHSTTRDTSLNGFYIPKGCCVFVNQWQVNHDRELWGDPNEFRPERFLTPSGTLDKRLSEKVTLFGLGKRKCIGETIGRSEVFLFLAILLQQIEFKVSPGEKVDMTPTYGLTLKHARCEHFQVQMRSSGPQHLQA
As to the kind of experiment: Inhibition of CYP1A1 in mouse RAW264.7 cells assessed as relative activity by measuring fold change at 5 uM incubated for 12 hrs by EROD assay relative to control. Conditions: read-out: FC.

Series [2] has as its target T1, CYP1A1. As to the kind of experiment: Inhibition of CYP1A1 in mouse RAW264.7 cells assessed as relative activity by measuring fold change at 500 nM incubated for 12 hrs by EROD assay relative to control. Conditions: read-out: FC.
For series [3], the target named is T2, CYP1A1 (Homo sapiens, UniProt P04798).
T2 sequence (P04798 whole entry): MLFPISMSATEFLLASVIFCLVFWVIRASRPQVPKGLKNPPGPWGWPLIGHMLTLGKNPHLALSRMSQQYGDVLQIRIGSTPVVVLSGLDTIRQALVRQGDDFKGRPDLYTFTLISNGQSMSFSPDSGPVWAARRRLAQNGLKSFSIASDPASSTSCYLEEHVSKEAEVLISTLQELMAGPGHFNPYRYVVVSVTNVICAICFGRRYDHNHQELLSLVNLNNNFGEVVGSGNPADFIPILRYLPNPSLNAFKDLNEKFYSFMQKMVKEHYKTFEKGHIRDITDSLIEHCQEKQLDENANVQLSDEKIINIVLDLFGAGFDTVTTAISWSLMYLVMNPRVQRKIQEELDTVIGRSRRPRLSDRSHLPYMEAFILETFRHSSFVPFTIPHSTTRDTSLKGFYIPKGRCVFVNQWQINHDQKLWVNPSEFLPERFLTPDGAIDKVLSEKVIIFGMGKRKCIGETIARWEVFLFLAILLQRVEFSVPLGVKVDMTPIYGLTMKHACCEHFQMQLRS
Nature of the series: Inhibition of CYP1A1 in human Caco-2 cells assessed as relative activity by measuring fold change at 500 nM incubated for 12 hrs by EROD assay relative to control. Conditions: read-out: FC.

The target in the next series is T3, Cytochrome P450 1A1 (Homo sapiens, UniProt P04798).
T3 sequence (P04798 whole entry): T2 sequence (P04798 whole entry)
As to the kind of experiment: Inhibition of CYP1A1 in human Caco-2 cells assessed as relative activity by measuring fold change at 5.0 uM incubated for 12 hrs by EROD assay relative to control. Conditions: caco-2, 12 h.

On to `C#Cc1ccc(/C=C/C(=O)c2ccc(N(C)C(C)=O)cc2)cc1`, for which the fold induction at 12 h, 5 µM on CYP1A1 [1] was found to be 1.04. The fold induction at 12 h, 0.5 µM turned out to be 1.16 on CYP1A1 [2] and 0.81 on CYP1A1 [3]. Moreover, the “fold change (FC)” value on Cytochrome P450 1A1 was determined as 0.78.
For `CCCCOc1ccc(/C=C/C(=O)c2ccc3c(c2)n(C)c(=O)n3C)cc1` the same measures were 0.77, 0.95, 0.91 and 0.23.
In the case of `Cn1c(=O)n(C)c2cc(C(=O)/C=C/c3ccco3)ccc21`, the fold induction at 12 h, 5 µM at CYP1A1 [1] was determined as 0.31. The fold induction at 12 h, 0.5 µM at CYP1A1 [2] worked out at 0.5; on CYP1A1 [3] it was 0.87. In addition, on Cytochrome P450 1A1, the “fold change (FC)” value is given as 0.47.
Take `O=C(/C=C/c1ccc(F)cc1)c1ccccc1` [4-FLUORO CHALCONE]: at CYP1A1 [1], the fold induction at 12 h, 5 µM was found to be 0.91. Further, the fold induction at 12 h, 0.5 µM at CYP1A1 [2] was found to be 1.1; on CYP1A1 [3], 0.83. Moreover, on Cytochrome P450 1A1, the “fold change (FC)” value came to 0.86.
With `Cn1c(=O)n(C)c2cc(C(=O)/C=C/c3ccccn3)ccc21`, on CYP1A1 [1], the fold induction at 12 h, 5 µM came out at 0.16. Besides, the fold induction at 12 h, 0.5 µM stood at 0.9 on CYP1A1 [2] and 0.83 at CYP1A1 [3]. Besides, the “fold change (FC)” value at Cytochrome P450 1A1 is listed as 0.88.
Turning to `Cn1c(=O)n(C)c2cc(C(=O)/C=C/c3c(F)c(F)c(F)c(F)c3F)ccc21`, the fold induction at 12 h, 5 µM at CYP1A1 [1] came out at 0.43. For the same compound, the fold induction at 12 h, 0.5 µM on CYP1A1 [2] came out at 0.69; at CYP1A1 [3] it was 0.8. The “fold change (FC)” value at Cytochrome P450 1A1 turned out to be 0.34.
For `Cn1c(=O)n(C)c2cc(C(=O)/C=C/c3ccc(-c4ccccc4)cc3)ccc21` the same measures were 0.81, 0.96, 0.75 and 0.15.
For `Cn1c(=O)n(C)c2cc(C(=O)/C=C/c3ccncc3)ccc21` the same measures were 1.22, 1.08, 2.34 and 3.08.
With `Cn1c(=O)n(C)c2cc(C(=O)/C=C/C#C[Si](C)(C)C)ccc21`, the fold induction at 12 h, 5 µM at CYP1A1 [1] is 0.15. In addition, the fold induction at 12 h, 0.5 µM on CYP1A1 [2] is 0.55; at CYP1A1 [3] it was 0.66. Further, on Cytochrome P450 1A1, the “fold change (FC)” value is reported as 0.11.
Consider `Cn1c(=O)n(C)c2cc(C(=O)/C=C/c3ccc4ccccc4c3)ccc21`, for which the fold induction at 12 h, 5 µM on CYP1A1 [1] was 0.77. Moreover, the fold induction at 12 h, 0.5 µM at CYP1A1 [2] stood at 0.8; at CYP1A1 [3], 1.18. Further, the “fold change (FC)” value on Cytochrome P450 1A1 was 0.47.
Consider `Cc1ccc(/C=C/C(=O)c2ccc3c(c2)n(C)c(=O)n3C)cn1`, for which the fold induction at 12 h, 5 µM on CYP1A1 [1] was 0.2. In addition, the fold induction at 12 h, 0.5 µM on CYP1A1 [2] was 0.77; on CYP1A1 [3], 0.66. The “fold change (FC)” value on Cytochrome P450 1A1 is 0.08.
The corresponding values for `Cn1c(=O)n(C)c2cc(C(=O)/C=C/c3ccc(F)cc3)ccc21` are 0.19, 0.29, 0.47 and 0.08.
The corresponding values for `C#Cc1ccc(/C=C/C(=O)c2ccc3c(c2)n(C)c(=O)n3C)cc1` are 0.19, 0.63, 0.22 and 0.07.
For `C#Cc1ccc(/C=C/C(=O)c2ccc(NC(C)=O)cc2)cc1` the same measures were 0.57, 1.12, 0.76 and 0.43.
`Cn1c(=O)n(C)c2cc(C(=O)/C=C/c3cccnc3)ccc21`: the fold induction at 12 h, 5 µM at CYP1A1 [1] turned out to be 0.53. The fold induction at 12 h, 0.5 µM was 2.57 at CYP1A1 [2] and 3.53 on CYP1A1 [3]. For the same compound, the “fold change (FC)” value at Cytochrome P450 1A1 came to 0.93.
The corresponding values for `Cn1c(=O)n(C)c2cc(C(=O)/C=C/c3c4ccccc4cc4ccccc34)ccc21` are 1.06, 1.15, 0.8 and 0.71.
The corresponding values for `Cn1c(=O)n(C)c2cc(C(=O)/C=C/c3cc(F)cc(F)c3)ccc21` are 0.89, 0.76, 0.89 and 0.74.
The corresponding values for `CN(C)c1ccc(/C=C/C(=O)c2ccc3c(c2)n(C)c(=O)n3C)cc1` are 0.54, 1.05, 0.52 and 0.24.
Regarding `Cn1c(=O)n(C)c2cc(S(=O)(=O)NCc3ccccc3)ccc21`, the fold induction at 12 h, 5 µM at CYP1A1 [1] was found to be 0.9. For the same compound, the fold induction at 12 h, 0.5 µM on CYP1A1 [2] amounted to 1.02; on CYP1A1 [3] it was 1.1. Moreover, on Cytochrome P450 1A1, the “fold change (FC)” value is given as 0.94.
The corresponding values for `Cn1c(=O)n(C)c2cc(C(=O)/C=C/c3ccc(F)cc3F)ccc21` are 0.56, 0.74, 0.68 and 0.42.
The corresponding values for `Cn1c(=O)n(C)c2cc(C(=O)/C=C/c3ccc(C#N)cc3)ccc21` are 0.6, 0.82, 0.83 and 0.51.
The corresponding values for `Cn1c(=O)n(C)c2cc(C(=O)/C=C/c3ccc(F)cc3Cl)ccc21` are 0.56, 0.67, 0.84 and 0.38.
With `CC(=O)n1cc(/C=C/C(=O)c2ccc3c(c2)n(C)c(=O)n3C)c2ccccc21`, at CYP1A1 [1], the fold induction at 12 h, 5 µM worked out at 0.17. Besides, the results for the fold induction at 12 h, 0.5 µM on CYP1A1 [2] and on CYP1A1 [3] were 0.92 and 0.93, respectively. Besides, on Cytochrome P450 1A1, the “fold change (FC)” value stood at 0.77.
As for `Cn1c(=O)n(C)c2cc(C(=O)/C=C/c3ccc(O[Si](C)(C)C(C)(C)C)cc3)ccc21`, at CYP1A1 [1], the fold induction at 12 h, 5 µM worked out at 0.89. For the same compound, the fold induction at 12 h, 0.5 µM at CYP1A1 [2] was found to be 1.11; at CYP1A1 [3], 0.69. Also, at Cytochrome P450 1A1, the “fold change (FC)” value is 0.43.
For `Cn1c(=O)n(C)c2cc(C(=O)/C=C/C#Cc3ccccc3)ccc21` the same measures were 0.49, 0.79, 0.85 and 0.39.
For `C#Cc1ccc(/C=C/C(=O)c2ccccc2)cc1` the same measures were 0.18, 0.52, 0.6 and 0.3.
The corresponding values for `Cn1c(=O)n(C)c2cc(C(=O)/C=C/c3ccc(C(C)(C)C)cc3)ccc21` are 0.51, 0.64, 0.98 and 0.97.
On to `Cn1cccc1/C=C/C(=O)c1ccc2c(c1)n(C)c(=O)n2C`, for which the fold induction at 12 h, 5 µM on CYP1A1 [1] was 1.07. In addition, the fold induction at 12 h, 0.5 µM stood at 1.47 at CYP1A1 [2] and 0.45 on CYP1A1 [3]. Besides, the “fold change (FC)” value on Cytochrome P450 1A1 is recorded as 0.09.
The corresponding values for `Cn1c(=O)n(C)c2cc(C(=O)/C=C/c3ccc([N+](=O)[O-])cc3)ccc21` are 0.64, 0.79, 0.97 and 0.37.
For `Cn1c(=O)n(C)c2cc(C(=O)/C=C/c3ccc(B(O)O)cc3F)ccc21` the same measures were 0.66, 1.02, 0.45 and 0.14.
For `COc1ccc2c(c1)c(/C=C/C(=O)c1ccc3c(c1)n(C)c(=O)n3C)cn2Cc1ccccc1` the same measures were 0.81, 1.15, 1.14 and 0.81.

For the origin of these results see ChEMBL document CHEMBL6178019, “Discovery of CYP1A1 Inhibitors for Host-Directed Therapy against Sepsis” (J Med Chem, 2025).
